Measurements: patent US20050288323A1, “Octahydro-indolizine and quinolizine and hexahydro-pyrrolizine” (priority 2000, published 2005)

Molecular target: T1, human histamine H3 receptor (Homo sapiens, UniProt Q9Y5N1)
T1 construct: One microgram of supercoiled H3 receptor cDNA was added to the cells and mixed; expressed in transfected cells; membranes
Test: [3H]-N-methylhistamine binding
Protocol: Thus in the present invention receptor binding was determined using the human histamine H3 receptor (See Lovenberg et al Mol. Pharmacol. 1999, 1107). Screening using the human receptor is particularly important for the identification of new therapies for the treatment of human disease. Conventional binding assays for example are determined using rat synaptosomes (Garbarg et al J. Pharmacol. Exp. Ther. 1992, 263, 304), rat cortical membranes (West et al Mol. Pharmacol. 1990, 610), and guinea pig brain (Korte et al Biochem. Biophys. Res. Commun. 1990, 978). Only limited studies have been performed previously using human tissue but these allude to significant differences in the pharmacology of rodent and primate receptors (West et al Eur. J. Pharmacol. 1999, 233).
Transfection of Cells with Human Histamine Receptor
A 10 cm tissue culture dish with a confluent monolayer of SK-N-MC cells was split two days prior to transfection. Using sterile technique the media was removed and the cells were detached from the dish by the addition of trypsin. One fifth of the cells were then placed onto a new 10 cm dish. Cells were grown in a 37° C. incubator with 5% CO2 in Minimal Essential Media Eagle with 10% Fetal Bovine Serum. After two days cells were approximately 80% confluent. These were removed from the dish with trypsin and pelleted in a clinical centrifuge. The pellet was then re-suspended in 400 μL complete media and transferred to an electroporation cuvette with a 0.4 cm gap between the electrodes (Bio-Rad #165-2088). One microgram of supercoiled H3 receptor cDNA was added to the cells and mixed. The voltage for the electroporation was set at 0.25 kV, the capacitance was set at 960 μF. After electroporation the cells were diluted into 10 mL complete media and plated onto four 10 cm dishes. Because of the variability in the efficiency of electroporation, four different concentrations of cells were plated. The ratios used were; 1:20, 1:10, 1:5, with the remainder of the cells being added to the fourth dish. The cells were allowed to recover for 24 hours before adding the selection media (complete media with 600 μg/mL G418). After 10 days dishes were analyzed for surviving colonies of cells. Dishes with well isolated colonies were used. Cells from individual colonies were isolated and tested. SK-N-MC cells were used because they give efficient coupling for inhibition of adenylate cyclase. The clones that gave the most robust inhibition of adenylate cyclase in response to histamine were used for further study.
[^3H]-N-methylhistamine Binding
Cell pellets from histamine H3 receptor-expressing SK-N-MC cells were homogenized in 20 mM TrisHCl/0.5 mM EDTA. Supernatants from a 800 g spin were collected, recentrifuged at 30,000 g for 30 minutes. Pellets were re-homogenized in 50 mM Tris/5 mM EDTA (pH 7.4). Membranes were incubated with 0.8 nM [^3H]-N-methylhistamine plus/minus test compounds for 45 min at 25° C. and harvested by rapid filtration over GF/C glass fiber filters (pretreated with 0.3% polyethylenimine) followed by four washes with ice cold buffer. Filters were dried, added to 4 mL scintillation cocktail and then counted on a liquid scintillation counter. Non-specific binding was defined with 10 μM histamine. The pKi values were calculated based on a Kd of 800 pM and a ligand concentration ([L]) of 800 pM according to the formula: Ki=(IC50)/(1+([L]/(Kd))

[1] = [3H]-N-methylhistamine 0.8 nM, membranes of H3 receptor-expressing SK-N-MC cells
[2] = Table 5, [3H]-N-methylhistamine binding
[3] = Table 3, [3H]-N-methylhistamine binding
[4] = Table 2, [3H]-N-methylhistamine binding

T1 sequence (Q9Y5N1 whole entry): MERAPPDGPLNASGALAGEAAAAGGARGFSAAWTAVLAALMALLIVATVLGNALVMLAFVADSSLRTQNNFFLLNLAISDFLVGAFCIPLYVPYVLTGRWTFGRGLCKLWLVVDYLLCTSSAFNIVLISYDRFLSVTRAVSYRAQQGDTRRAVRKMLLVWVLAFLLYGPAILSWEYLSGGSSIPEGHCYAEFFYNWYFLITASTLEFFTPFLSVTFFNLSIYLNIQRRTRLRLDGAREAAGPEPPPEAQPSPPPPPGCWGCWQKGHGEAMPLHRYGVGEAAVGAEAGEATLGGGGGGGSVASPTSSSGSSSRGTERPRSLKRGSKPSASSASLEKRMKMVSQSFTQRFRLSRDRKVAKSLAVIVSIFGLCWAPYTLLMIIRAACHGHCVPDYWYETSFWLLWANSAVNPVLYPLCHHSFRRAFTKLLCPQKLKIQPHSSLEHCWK

Compound | Ki [1] [nM] | further results
Brc1ccc([C@H]2CC[C@H]3CCCCN32)cc1 (racemic) [Example 1, trans-3-(4-bromophenyl)octahydroindolizine] | 325 | 
c1cc(CNc2ccc([C@H]3CC[C@H]4CCCCN43)cc2)ccn1 (racemic) [Example 131] |  | Ki [2]: 511 nM
c1cc([C@H]2CC3CCCCN3C2)ccc1OCCCN1CCCCC1 (mixture of isomers) [Example 68, anti-2-(4-(3-Piperidinylpropoxy)phenyl)octahydroindolizine] | 0.2 | 
O=C(CCN1CCCCC1)Nc1ccc([C@@H]2CC[C@@H]3CCCCN32)cc1 (relative stereo) [Example 105, trans-3-[4-(N-3-Piperidinylpropanamido)phenyl]octahydroindolizine] | 10 | 
[O-][n+]1ccc(CNc2ccc([C@H]3CC[C@H]4CCCCN43)cc2)cc1 (racemic) [Example 133] |  | Ki [2]: 4380 nM
CC(C)(C)OC(=O)N1CCCCC1CCOc1ccc([C@H]2CC[C@H]3CCCCN32)cc1 (mixture of isomers) [Example 85, trans-3-{4-[2,2′-(1-tert-Butylcarboxylatepiperidinyl)ethoxy]phenyl}-octahydroindolizine] | 51 | 
c1cc(OCCCN2CCCCC2)cc([C@H]2C[C@@H]3CCCCN3C2)c1 (racemic) [Example 72, anti-2-[3-(3-Piperidinylpropyloxy)phenyl]octahydroindolizine] | 0.3 | 
Fc1ccc(-c2ccc([C@H]3CC[C@H]4CCCCN43)cc2)cc1 (racemic) [Example 53] |  | Ki [3]: 415 nM
CN(CCCN1CCCCC1)c1ccc([C@@H]2CC[C@@H]3CCCCN32)cc1 (relative stereo) [Example 110, trans-3-[4-(N-Methyl-N-3-piperidylpropylamino)phenyl]octahydroindolizine] | 2 | 
c1cc(Sc2ccc([C@@H]3CCC[C@@H]4CCCN43)cc2)ccn1 (racemic) [Example 26, 5-[4-(4-Pyridinylthio)phenyl]octahydroindolizine] | 35 | 
O=C(N1CCCCC1CCOc1ccc([C@H]2CC[C@H]3CCCCN32)cc1)C(F)(F)F (mixture of isomers) [Example 88, trans-3-{4-[2,2′-(N-Trifluoroacetylpiperidinyl)ethoxy]phenyl}octahydroindolizine] | 71 | 
O=S(=O)(Nc1ccc([C@@H]2CC[C@@H]3CCCCN32)cc1)C1CCCNC1 (relative stereo) [Example 117, trans-3-[4-(3-Piperidylsulfonylamino)phenyl]octahydroindolizine] | 4 | 
CN(C)c1ccc([C@@H]2CC[C@@H]3CCCCN32)cc1 (relative stereo) [Example 96, trans-3-(4-(N,N-Dimethylamino)phenyl)octahydroindolizine] | 380 | 
c1cc([C@@H]2CCC[C@@H]3CCCN32)ccc1OCCN1CCCCC1 (racemic) [Example 63, 5-[4-(2-Piperidinylethanoxy)phenyl]octahydroindolizine] | 5 | 
N#Cc1ccc(Sc2ccc([C@H]3CC[C@H]4CCCCN43)cc2)cc1 (racemic) [Example 38] |  | Ki [4]: 558 nM
C(=C\c1ccc([C@H]2CC[C@H]3CCCCN32)cc1)/c1ccncc1 (racemic) [Example 73, trans-3-[4-(4-Pyridinylethenyl)phenyl]octahydroindolizine] | 65 | 
c1cc([C@@H]2CCC[C@@H]3CCCN32)ccc1OCCCCN1CCCCC1 (racemic) [Example 62] | 0.7 | 
O=Cc1ccsc1-c1ccc([C@H]2CC[C@H]3CCCCN32)cc1 (racemic) [Example 51] |  | Ki [3]: 132 nM
trans-3-{4-[(2-Pyrrolidylethyl)sulfonylamino]phenyl}octahydroindolizine [Example 122] | 534 | 
O=c1[nH]c(Sc2ccc([C@H]3CC[C@H]4CCCCN43)cc2)nc2ccccc12 (racemic) [Example 33] |  | Ki [4]: 163 nM
C#Cc1ccc([C@H]2CC[C@H]3CCCCN32)cc1 (racemic) [Example 75, trans-3-(4-acetylenephenyl)octahydroindolizine] | 1100 | 

Further lines, with some results ahead:

Ki [1] [nM] | Compound | further results
75 | CN(C)CCNc1cccc([C@H]2CC[C@H]3CCCCN32)c1 (racemic) [Example 56, tran-3-[4-(3-(2-Dimethylaminoethyl)amino)phenyl]octahydroindolizine] | 
0.6 | c1cc(C2CCC3CCCN32)ccc1OCCCN1CCCCC1 (stereo not shown) [Example 140, 3-[4-(Piperidinylpropoxy)phenyl]hexahydro-1H-pyrrolizine] | 
47 | FC(F)(F)CN1CCCCC1CCOc1ccc([C@H]2CC[C@H]3CCCCN32)cc1 (mixture of isomers) [Example 89, trans-3-{4-[2,2′-(N-Trifluoroethylpiperidinyl)ethoxy]phenyl}octahydroindolizine] | 
62 | Nc1ccc(Sc2ccc([C@H]3CC[C@H]4CCCCN43)cc2)cc1 (racemic) [Example 40, tran-3-[4-(4-Aminophenylthio)phenyl]octahydroindolizine] | 
803 | OC(c1ccc(Cl)cc1)c1ccc(C2CCC3CCCCN32)cc1 (mixture of isomers) [Example 123, trans-3-{4-[(4-Chlorophenyl)methan-1-ol]phenyl}octahydroindolizine] | 
11 | O=S(=O)(CCN1CCCCC1)Nc1ccc([C@H]2CC[C@H]3CCCCN32)cc1 (racemic) [Example 120, trans-3-{4-[(2-Piperidylethyl)sulfonyl]amidophenyl}octahydroindolizine] | 
75 | CS(=O)(=O)Nc1ccc(Sc2ccc([C@@H]3CCC[C@@H]4CCCN43)cc2)cc1 (racemic) [Example 41, 5-[4-(4-Methanesulfonaminophenylthio)phenyl]octahydroindolizine] | 
481 | CS(=O)(=O)Nc1ccc([C@@H]2CC[C@@H]3CCCCN32)cc1 (relative stereo) [Example 97, trans-3-(4-(Methylsulfonylamino)phenyl)octahydroindolizine] | 
90 | c1cc([C@H]2CC[C@H]3CCCCN32)ccc1OCCC1CCCCN1 (stereo partly drawn) [Example 86, trans-3-[4-(2,2′-piperidinylethoxy)phenyl]octahydroindolizine] | 
323 | O=[N+]([O-])c1ccc(Sc2ccc([C@@H]3CCC[C@@H]4CCCN43)cc2)cc1 (racemic) [Example 27, 5-[4-(4-Nitrophenylthio)phenyl]octahydroindolizine] | 
0.06 | c1cc([C@H]2CC[C@H]3CCCCN32)ccc1OCCCN1CCCCC1 [Example 93, (R, R)-3-(4-(3-Piperidinylpropoxy)phenyl)octahydroindolizine] | 
92 | c1ccc2c(Oc3ccc([C@H]4CC[C@H]5CCCCN54)cc3)ncnc2c1 (racemic) [Example 34, 4-[4-(Octahydro-indolizin-3-yl)-phenoxy]-quinazoline] | 
308 | CS(=O)(=O)Nc1cccc(COc2ccc([C@H]3CC[C@H]4CCCCN43)cc2)c1 (racemic) [Example 83, trans-3-[4-(3-Methansulfonaminobenzyloxy)phenyl]octahydroindolizine] | 
655 | Clc1ccc(Cc2ccc([C@H]3CC[C@H]4CCCCN43)cc2)cc1 (racemic) [Example 125] | 
296 | Nc1ccc(Oc2ccc([C@H]3CC[C@H]4CCCCN43)cc2)cc1 (racemic) [Example 78, trans-3-[4-(4-Aminophenoxy)phenyl]octahydroindolizine] | 
> 5000 | CN(c1ccc([C@H]2CC[C@H]3CCCCN32)cc1)S(C)(=O)=O (racemic) [Example 99, trans-3-(4-(N-Methyl-N-methylsulfonylamido)phenyl)octahydroindolizine] | 
